Reference: patent US20250320190A1, “Novel Inhibitors of Leucine Carboxyl Methyltransferase-1 (LCMT-1) and Methods of Use Thereof” (Temple University-Of The Commonwealth System of Higher …, priority 2024, published 2025)
“Also recorded” adds a separate entry of the source.

Columns and labels:
Type in all cases: cell-based, human
UM-SCC-12 cells [1] = experiment: DDR analysis (activated γ-H2AX flow cytometry); conditions: LCMT-li alone vs control cells, 24 hours
Description: (§1) Cells were treated with LCMT-li, radiotherapy or both as described for Annexin V assays. After 24 hours, cells were lifted with 0.25% trypsin, 2.21 mM EDTA, stained with Ghost Dye™ 710 and fixed with formaldehyde as described. Cells were washed with PBS with 1% BSA, and permeabilized with PBS with 0.1% Triton X-100 on ice for 10 minutes. Cells were pelleted and washed twice with PBS with 0.02% Triton X-100. Cells were resuspended in PBS with 1% BSA and 0.3% Tween-20, and stained with FITC-anti-activated-γ-H2AX (Biolegend, catalog #613404). Cells were pelleted and washed with PBS with 1% BSA and 0.1% sodium azide. DDR analyses were performed twice with 12 replicates, 104 cells/replicate.

UM-SCC-69 cells [2] = experiment: DDR analysis (activated γ-H2AX flow cytometry)
Description: as §1

SCC-25 cells [3] = experiment: DDR analysis (activated γ-H2AX flow cytometry); conditions: LCMT-li alone vs control cells, 24 hours
Description: as §1

UM-SCC-14a cells [4] = experiment: DDR analysis (activated γ-H2AX flow cytometry); conditions: LCMT-li alone vs control cells, 24 hours
Description: as §1

SCC-15 cells [5] = experiment: Cell cycle analysis (BrdU) with and without irradiation; conditions: in the presence of irradiation
Description: (§2) Cells were treated with LCMT-li, radiotherapy or both as described for Annexin V assays. After 24 hours, cells were labeled with 50 μM bromodeoxyuridine (BrdU, BioGems, Westlake Village, California, catalog #5911439) for 4 hours. Cells were lifted with 0.25% trypsin, 2.21 mM ethylenediaminetetraacetic acid (EDTA) (Corning catalog #25-053-CI) after 4 hours and fixed with 70% ethanol overnight at −20° C. Cells were pelleted and permeabilized with 1 M HCl with 0.1% Triton X-100 for one minute. Cells were pelleted and cellular DNA was denatured with 2 M HCl. After neutralization with 1 M Tris, pH 8.5, cells were labeled with FITC-anti-BrdU (Biolegend, catalog #364104, 5 μL/100 μL cell suspension) and 7-aminoactinomycin-D (7-AAD, Biolegend, catalog #420404, 1 μL/100 μL cell suspension). Cells were washed with PBS with 10% FBS, and resuspended in PBS with 0.1% Triton X-100. Cells were analyzed with flow cytometry. Cell cycle analyses were performed twice with 12 replicates, 104 cells/replicate.

UM-SCC-49 cells [6] = experiment: as above; conditions: combination vs irradiation alone
Description: as §2

UM-SCC-12 cells [7] = experiment: as above; conditions: LCMT-li/irradiation combination vs irradiation alone
Description: as §2

UM-SCC-69 cells [8] = experiment: as above
Description: as §2

SCC-25 cells [9] = experiment: as above
Description: as §2

UM-SCC-14a cells [10] = experiment: as above; conditions: combination vs irradiation alone, listed as LCMT-li
Description: as §2

Rosi cells [11] = experiment: Cytotoxicity assay (calcein-AM); conditions: Homo sapiens; Rosi; 48 hours; read-out: Log [μM] EC50 (converted)
Description: HS-5, HEK-293, MCF7, MDA-MB-231 and Rosi cells were seeded in 96-well optical bottom tissue culture plates (Corning, New York) at a density of 2.5×10^3 cells/well. […] Control cells were given fresh media. After 48 hours the media were aspirated and plates were washed with warmed Dulbecco's phosphate-buffered saline (DPBS) with calcium and magnesium (Sigma-Aldrich, catalog #D1283). Cells were stained with 3 μM calcein-AM (AAT Bioquest, Pleasanton, California, catalog #22002) in DPBS for 30 minutes in the dark at 37° C. Plates were immediately read with a Biotek fluorescent plate reader (excitation 485 nm, emission 520 nm). The cytotoxicity assays were performed at least three times, each time with six replicates per condition.

MDA-MB-231 cells = experiment: Radiosensitization assay (crystal violet); conditions: 10 Grays, data not shown
Description: (§3) MCF7, MDA-MB-231, 501-MEL, Rosi, A549, SCC-15, SCC-25, UM-SCC-12, UM-SCC-14a, UM-SCC-49 and UM-SCC69 cells were seeded in 96-well tissue culture plates as previously described. After 24 hours, the media were changed to media with LCMT-li at various concentrations as described. After 3 hours, cells were irradiated at doses listed in Table 2 with an RS-2000 X-Ray Irradiator (Rad Source Technologies, Buford, Georgia). Radiation doses were based on published radiosensitization studies. After 24 hours cell viability was assessed using crystal violet staining. Briefly, cells were washed with PBS, then stained with crystal violet solution (0.25 g crystal violet in 20% methanol) for 20 minutes with agitation. The wells were washed 6 times with PBS to remove excess crystal violet. Plates were allowed to dry for 48 hours, and then 200 μL methanol was added to each well. The plates were agitated for 20 minutes to dissolve the crystal violet, and absorbance was read at 560 nm. The
(§4) radiosensitization assays were performed twice, each time with eight replicates per condition.

SCC-15 cells [12] = experiment: Radiosensitization assay (crystal violet); conditions: irradiated 8 Grays 3 hours after compound, viability after 24 hours, listed as LCMT-li
Description: as §3, §4

MCF7 cells = experiment: Radiosensitization assay (crystal violet); conditions: 4 Grays
Description: as §3, §4

UM-SCC-49 cells [13] = experiment: Radiosensitization assay (crystal violet); conditions: irradiated 8 Grays 3 hours after compound, viability after 24 hours, listed as LCMT-li
Description: as §3, §4

UM-SCC-12 cells [14] = experiment: Radiosensitization assay (crystal violet); conditions: irradiated 8 Grays 3 hours after compound, viability after 24 hours
Description: as §3, §4

UM-SCC-69 cells [15] = experiment: Radiosensitization assay (crystal violet); conditions: irradiated 8 Grays 3 hours after compound, viability after 24 hours, listed as LCMT-li
Description: as §3, §4

SCC-25 cells [16] = experiment: Radiosensitization assay (crystal violet); conditions: irradiated 8 Grays 3 hours after compound, viability after 24 hours
Description: as §3, §4

A549 cells = experiment: Radiosensitization assay (crystal violet); conditions: 4 Grays
Description: as §3, §4

Rosi cells [17] = experiment: Radiosensitization assay (crystal violet)
Description: as §3, §4

501-MEL cells = experiment: Radiosensitization assay (crystal violet); conditions: 8 Grays
Description: as §3, §4

## COC(=O)c1c(NC(=O)c2ccccc2C)sc(C(=O)Nc2cccc(C)c2)c1C [Compound 2, methyl 4-methyl-2-[(2-methylbenzoyl)amino]-5-[[(3-methylphenyl)amino]carbonyl]-3-thiophenecarboxylate]
UM-SCC-12 cells [1]
  activated γ-H2AX expression: decreased activated γ-H2AX expression
UM-SCC-69 cells [2]; LCMT-li alone vs control cells, 24 hours
  activated γ-H2AX expression: decreased activated γ-H2AX expression
UM-SCC-69 cells [2]; in the presence of irradiation
  DDR (activated γ-H2AX expression): inhibited DDR as evidenced by persistent activated γ-H2AX expression
SCC-25 cells [3]
  activated γ-H2AX expression: increased activated γ-H2AX expression
UM-SCC-14a cells [4]
  activated γ-H2AX expression: decreased activated γ-H2AX expression
SCC-15 cells [5]
  cell cycle effect: induced G0/G1 as well as G2/M phase arrest
UM-SCC-49 cells [6]
  cell cycle effect: decreased G2/M phase arrest
UM-SCC-12 cells [7]
  cell cycle effect: increased G2/M phase arrest
UM-SCC-69 cells [8]; LCMT-li alone vs control cells
  cell cycle effect: induced G0/G1 arrest
UM-SCC-69 cells [8]; combination vs irradiation alone
  cell cycle effect: decreased G2/M phase arrest
SCC-25 cells [9]; LCMT-li alone vs control cells
  cell cycle effect: induced G2/M phase arrest
SCC-25 cells [9]; LCMT-li/irradiation combination vs irradiation alone
  cell cycle effect: increased G2/M phase arrest
UM-SCC-14a cells [10]
  cell cycle effect: increased G0/G1 arrest; also recorded: decreased G2/M phase arrest
Rosi cells [11]
  EC50: 3.16 µM
MDA-MB-231 cells
  radiosensitization: did not radiosensitize MDA-MB-231 cells
SCC-15 cells [12]
  LCMT-1i radiosensitizing Concentration: 2.5 to 10 µM
MCF7 cells
  radiosensitization: did sensitize MCF7 cells to irradiation
UM-SCC-49 cells [13]
  LCMT-1i radiosensitizing Concentration: 2.5 to 10 µM
UM-SCC-12 cells [14]
  LCMT-1i radiosensitizing Concentration: 200 µM
UM-SCC-69 cells [15]
  LCMT-1i radiosensitizing Concentration: 2.5 to 10 µM
SCC-25 cells [16]; listed as LCMT-1i
  LCMT-1i radiosensitizing Concentration: 1.25 µM
SCC-25 cells [16]; listed as LCMT-li
  LCMT-1i radiosensitizing Concentration: 2.5 to 10 µM
A549 cells
  radiosensitization: demonstrated radiosensitization
Rosi cells [17]; 8 Grays
  radiosensitization: demonstrated radiosensitization
Rosi cells [17]; irradiated 8 Grays 3 hours after compound, viability after 24 hours
  LCMT-1i radiosensitizing Concentration: 50 µM
501-MEL cells
  radiosensitization: did radiosensitize these cells
